Laboratory results from US12371428B2 (Exelixis, Inc., priority 2019, dated 2025).
Where two headings read alike, the source gives them in different places.

Tests used:
[1] = target: Human KDR (residues 790-1356) (Homo sapiens (Human), UniProt P35968); experiment: Human KDR kinase assay, HTRF KinEase (Example B-2); type: biochemical
Experimental: (§1) Kinase activity and compound inhibition were also investigated using the HTRF® KinEase assay (Cisbio Cat #62TKOPEB) per manufacturer's instructions. In short, compounds were delivered in 300 nL volumes at 10 different concentrations in DMSO (3% final) to empty 384-well assay plates (Corning cat #3824). A mixture of enzyme, […] biotynlated peptide substrate, and buffer in 10 μL volume was added. The assay was started upon the addition of ATP (at Km). The 10 μL reaction was incubated at room temperature. The reaction was stopped upon the addition of detection buffer containing streptavidin-XL665 ([…]) and TK antibody-Eu3+([…]). After a 60 min incubation at room temperature, the fluorescence at 665 nm and 620 nm was read on an Envision microplate reader (Perkin Elmer).
(§2) Kinase activity normalized to DMSO (100% activity) and reference compound at […] and (0% activity) was calculated using the fluorescence ratio […]. IC50 values were calculated by nonlinear regression analysis using a 4-parameter logistic curve fit in ActivityBase XE (IDBS).
(§3) Example B-2: Human KDR (residues 790-1356; CarnaBio, 0.1 ng/well) was also incubated with enzymatic buffer (Cisbio) supplemented with 5 mM MgCl2, 1 mM MnCl2, and 1 mM DTT. The mixture was added to the pre-plated compounds. The reaction was initiated upon addition of ATP at Km (4.0 μM). The reaction was incubated at room temperature for 40 min and stopped upon the addition of SA-XL665 and TK-antibody both diluted in EDTA-containing kinase detection buffer (Cisbio). The kinase activity was calculated as stated above and the IC50 values were reported.

[2] = target: Human MER (residues 528-999) (Homo sapiens (Human), UniProt Q12866); experiment: Human Mer kinase assay, HTRF KinEase (Example C-2); type: biochemical
Experimental: as §1, §2
Example C-2: Human MER (residues 528-999; CarnaBio, 1 ng/well) was also incubated with enzymatic buffer (Cisbio) supplemented with 5 mM MgCl2 and 1 mM DTT. The mixture was added to the pre-plated compounds. The reaction was initiated upon addition of ATP at Km (40 μM). The reaction was incubated at room temperature for 60 min and stopped upon the addition of SA-XL665 and TK-antibody both diluted in EDTA-containing kinase detection buffer (Cisbio). The kinase activity was calculated as stated above and the IC50 values were reported.

[3] = target: Human MET (residues 956-1390) (Homo sapiens (Human), UniProt P08581); experiment: Human Met kinase assay, HTRF KinEase (Example D-2); type: biochemical; settings: read-out: c-Met IC50
Experimental: as §1, §2
as §3, with “D-2:” for “B-2:”, “MET” for “KDR”, “956-1390;” for “790-1356;”, “DTT” for “MnCl2,”, “MnCl2.” for “DTT.”, “The reaction was initiated upon addition of ATP at Km (4.0 μM).” left out

[4] = target: Mer (phospho-Mer, MERTK-transfected 293A cells) (Homo sapiens (Human), UniProt Q12866); experiment: Mer autophosphorylation ELISA in transient transfected 293A cells (Example H); type: cell-based; settings: cellular activity; Mer autophosphorylation ELISA in transient transfected 293A cells
In short: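 IC50 from 4-parameter logistic fit of phospho-Mer levels, quantified by ELISA against a phospho-Mer standard in lysates of MERTK-transfected 293A cells. Cells exposed 1 h to 8-point serial dilutions, serum-free, 0.3% DMSO; controls: DMSO (100%) and reference inhibitor (0%).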

[5] = target: Met (phospho-Met, HGF-stimulated PC-3 prostate cancer cells) (Homo sapiens (Human), UniProt P08581); experiment: Met autophosphorylation ELISA in PC-3 cells (Example F); type: cell-based; settings: cellular activity; Met autophosphorylation ELISA in PC-3 cells; read-out: c-Met IC50
In short: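 Serum-starved (3 h) PC-3 cells were treated 1 h with compounds (8-point curve, 0.3% DMSO), then stimulated with 100 ng/mL human HGF for 10 min. Lysate phospho-Met (panTyr) was measured by sandwich ELISA, normalised to DMSO and reference-inhibitor controls. IC50 came from 4-parameter logistic fit.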

[6] = target: KDR (phospho-KDR, VEGF165-stimulated HUVEC cells) (Homo sapiens (Human), UniProt P35968); experiment: KDR autophosphorylation ELISA in HUVEC cells (Example G); type: cell-based; settings: cellular activity; KDR autophosphorylation ELISA in HUVEC cells
In short: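 Read-out: phospho-KDR in cell lysates by DuoSet IC ELISA, normalised between VEGF-stimulated DMSO wells (100%) and unstimulated wells (0%). Human endothelial cells were starved overnight in serum-free medium, exposed to compound for 1 h, and then pulsed with 100 ng/mL VEGF165 for 5 min.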

[7] = protocol of Example B-2 (other compounds)
[8] = protocol of Example C-2 (other compounds)

Chain of Human MET (residues 956-1390) (P08581 956-1390): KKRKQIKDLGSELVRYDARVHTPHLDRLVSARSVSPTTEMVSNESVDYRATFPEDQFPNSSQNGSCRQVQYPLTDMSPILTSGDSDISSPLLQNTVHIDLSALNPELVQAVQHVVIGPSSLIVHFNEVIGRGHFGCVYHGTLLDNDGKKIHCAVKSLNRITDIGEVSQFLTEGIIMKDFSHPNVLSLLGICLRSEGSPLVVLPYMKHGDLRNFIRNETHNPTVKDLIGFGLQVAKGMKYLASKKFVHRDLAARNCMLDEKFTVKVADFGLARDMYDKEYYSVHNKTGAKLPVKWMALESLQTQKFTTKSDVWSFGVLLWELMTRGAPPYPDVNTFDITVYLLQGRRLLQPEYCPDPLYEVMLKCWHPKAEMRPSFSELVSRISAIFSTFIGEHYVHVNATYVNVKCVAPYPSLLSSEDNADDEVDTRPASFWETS
Chain of Mer (phospho-Mer, MERTK-transfected 293A cells) (Q12866 21-999): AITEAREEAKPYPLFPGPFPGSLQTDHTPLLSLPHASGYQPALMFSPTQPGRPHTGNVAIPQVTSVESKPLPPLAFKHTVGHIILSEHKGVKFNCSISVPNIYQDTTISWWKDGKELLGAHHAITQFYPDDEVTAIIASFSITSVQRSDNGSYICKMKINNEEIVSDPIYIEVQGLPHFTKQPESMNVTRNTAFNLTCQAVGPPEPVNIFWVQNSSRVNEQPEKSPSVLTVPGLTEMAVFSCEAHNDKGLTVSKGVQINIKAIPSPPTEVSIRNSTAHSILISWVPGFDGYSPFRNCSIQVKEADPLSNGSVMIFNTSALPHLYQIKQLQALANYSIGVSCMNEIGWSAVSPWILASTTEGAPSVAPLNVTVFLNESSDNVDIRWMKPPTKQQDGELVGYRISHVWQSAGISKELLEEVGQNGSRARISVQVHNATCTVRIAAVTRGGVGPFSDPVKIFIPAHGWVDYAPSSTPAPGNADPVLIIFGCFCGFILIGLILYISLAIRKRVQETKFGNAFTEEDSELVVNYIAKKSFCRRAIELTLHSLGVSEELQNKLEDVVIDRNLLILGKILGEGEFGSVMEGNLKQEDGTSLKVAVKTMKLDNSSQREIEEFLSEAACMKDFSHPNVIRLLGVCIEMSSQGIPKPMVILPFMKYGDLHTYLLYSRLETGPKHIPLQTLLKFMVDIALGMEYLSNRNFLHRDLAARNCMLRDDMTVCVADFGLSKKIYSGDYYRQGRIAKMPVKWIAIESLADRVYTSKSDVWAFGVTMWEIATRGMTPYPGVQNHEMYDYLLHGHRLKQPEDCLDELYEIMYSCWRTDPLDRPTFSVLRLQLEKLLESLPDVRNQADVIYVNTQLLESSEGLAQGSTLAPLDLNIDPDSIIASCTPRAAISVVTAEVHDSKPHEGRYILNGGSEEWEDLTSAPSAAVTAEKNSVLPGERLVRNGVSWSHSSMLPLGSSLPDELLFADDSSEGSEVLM
Chain of Met (phospho-Met, HGF-stimulated PC-3 prostate cancer cells) (P08581 25-1390): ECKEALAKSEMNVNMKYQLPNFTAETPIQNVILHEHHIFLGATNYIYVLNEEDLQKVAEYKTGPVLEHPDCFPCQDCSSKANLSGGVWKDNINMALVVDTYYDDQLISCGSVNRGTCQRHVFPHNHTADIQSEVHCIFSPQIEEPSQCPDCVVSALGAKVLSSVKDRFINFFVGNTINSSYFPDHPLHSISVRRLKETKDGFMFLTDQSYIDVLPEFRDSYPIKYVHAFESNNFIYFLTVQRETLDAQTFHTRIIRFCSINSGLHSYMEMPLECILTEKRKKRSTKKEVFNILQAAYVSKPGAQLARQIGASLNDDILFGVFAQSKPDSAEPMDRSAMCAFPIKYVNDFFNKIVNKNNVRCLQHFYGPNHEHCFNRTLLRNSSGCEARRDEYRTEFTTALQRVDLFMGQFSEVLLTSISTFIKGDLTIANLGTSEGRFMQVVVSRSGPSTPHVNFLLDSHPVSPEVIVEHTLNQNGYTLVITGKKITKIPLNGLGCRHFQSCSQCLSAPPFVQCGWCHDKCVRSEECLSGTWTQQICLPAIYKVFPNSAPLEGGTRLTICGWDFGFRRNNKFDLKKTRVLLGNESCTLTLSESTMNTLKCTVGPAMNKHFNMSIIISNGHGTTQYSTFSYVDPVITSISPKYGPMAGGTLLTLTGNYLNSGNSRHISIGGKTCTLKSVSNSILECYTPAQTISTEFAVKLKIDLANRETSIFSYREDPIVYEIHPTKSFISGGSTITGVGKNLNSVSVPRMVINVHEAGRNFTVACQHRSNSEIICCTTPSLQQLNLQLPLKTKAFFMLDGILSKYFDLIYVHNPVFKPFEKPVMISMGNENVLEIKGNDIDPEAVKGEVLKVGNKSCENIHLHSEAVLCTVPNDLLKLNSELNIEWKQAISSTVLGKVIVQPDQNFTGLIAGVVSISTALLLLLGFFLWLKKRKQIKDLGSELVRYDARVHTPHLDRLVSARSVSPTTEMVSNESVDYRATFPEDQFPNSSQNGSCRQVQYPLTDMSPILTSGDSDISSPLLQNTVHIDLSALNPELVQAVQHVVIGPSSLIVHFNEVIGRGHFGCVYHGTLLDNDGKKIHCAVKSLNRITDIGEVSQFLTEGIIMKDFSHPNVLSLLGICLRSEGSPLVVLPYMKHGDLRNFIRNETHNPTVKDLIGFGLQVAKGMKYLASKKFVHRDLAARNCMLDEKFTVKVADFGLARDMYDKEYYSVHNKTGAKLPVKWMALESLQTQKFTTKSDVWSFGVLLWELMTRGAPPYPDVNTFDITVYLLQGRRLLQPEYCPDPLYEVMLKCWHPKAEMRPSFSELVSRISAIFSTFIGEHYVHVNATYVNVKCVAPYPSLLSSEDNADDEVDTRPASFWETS
Chain of KDR (phospho-KDR, VEGF165-stimulated HUVEC cells) (P35968 20-1356): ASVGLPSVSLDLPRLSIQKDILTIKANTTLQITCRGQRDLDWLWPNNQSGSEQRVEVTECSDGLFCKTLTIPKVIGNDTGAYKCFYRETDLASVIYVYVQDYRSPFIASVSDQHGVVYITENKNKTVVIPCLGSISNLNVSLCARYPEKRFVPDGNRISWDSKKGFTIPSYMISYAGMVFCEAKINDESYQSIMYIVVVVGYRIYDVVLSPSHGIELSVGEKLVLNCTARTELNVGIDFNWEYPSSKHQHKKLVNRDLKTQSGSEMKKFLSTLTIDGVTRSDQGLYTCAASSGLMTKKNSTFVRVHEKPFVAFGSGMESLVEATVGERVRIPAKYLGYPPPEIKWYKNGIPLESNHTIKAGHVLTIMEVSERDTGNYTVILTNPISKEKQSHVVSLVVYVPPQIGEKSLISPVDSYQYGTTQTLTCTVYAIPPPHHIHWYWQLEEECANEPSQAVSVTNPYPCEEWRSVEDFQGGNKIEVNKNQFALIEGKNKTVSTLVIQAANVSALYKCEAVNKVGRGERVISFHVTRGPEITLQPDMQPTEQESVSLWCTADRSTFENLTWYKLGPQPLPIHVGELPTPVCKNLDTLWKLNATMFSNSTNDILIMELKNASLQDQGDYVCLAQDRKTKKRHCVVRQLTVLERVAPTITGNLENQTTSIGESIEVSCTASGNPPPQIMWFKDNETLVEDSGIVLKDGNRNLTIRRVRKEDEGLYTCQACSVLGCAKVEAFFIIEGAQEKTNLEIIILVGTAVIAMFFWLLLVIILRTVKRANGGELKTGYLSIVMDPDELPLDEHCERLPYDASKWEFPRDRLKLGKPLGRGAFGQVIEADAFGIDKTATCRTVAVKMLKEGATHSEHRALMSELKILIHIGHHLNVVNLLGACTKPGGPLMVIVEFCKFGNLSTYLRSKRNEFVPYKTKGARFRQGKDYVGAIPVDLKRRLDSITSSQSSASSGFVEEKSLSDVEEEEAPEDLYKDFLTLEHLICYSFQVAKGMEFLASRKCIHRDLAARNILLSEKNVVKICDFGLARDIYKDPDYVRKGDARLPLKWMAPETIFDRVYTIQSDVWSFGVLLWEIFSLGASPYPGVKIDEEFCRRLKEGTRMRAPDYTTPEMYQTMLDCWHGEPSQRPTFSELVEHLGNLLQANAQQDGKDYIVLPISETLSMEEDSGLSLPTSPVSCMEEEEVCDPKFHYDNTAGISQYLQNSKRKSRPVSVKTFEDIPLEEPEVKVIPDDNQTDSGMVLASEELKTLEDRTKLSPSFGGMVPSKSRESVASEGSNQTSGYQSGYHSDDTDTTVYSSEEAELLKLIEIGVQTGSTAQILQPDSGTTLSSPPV
Chain of Human KDR (residues 790-1356) (P35968 790-1356): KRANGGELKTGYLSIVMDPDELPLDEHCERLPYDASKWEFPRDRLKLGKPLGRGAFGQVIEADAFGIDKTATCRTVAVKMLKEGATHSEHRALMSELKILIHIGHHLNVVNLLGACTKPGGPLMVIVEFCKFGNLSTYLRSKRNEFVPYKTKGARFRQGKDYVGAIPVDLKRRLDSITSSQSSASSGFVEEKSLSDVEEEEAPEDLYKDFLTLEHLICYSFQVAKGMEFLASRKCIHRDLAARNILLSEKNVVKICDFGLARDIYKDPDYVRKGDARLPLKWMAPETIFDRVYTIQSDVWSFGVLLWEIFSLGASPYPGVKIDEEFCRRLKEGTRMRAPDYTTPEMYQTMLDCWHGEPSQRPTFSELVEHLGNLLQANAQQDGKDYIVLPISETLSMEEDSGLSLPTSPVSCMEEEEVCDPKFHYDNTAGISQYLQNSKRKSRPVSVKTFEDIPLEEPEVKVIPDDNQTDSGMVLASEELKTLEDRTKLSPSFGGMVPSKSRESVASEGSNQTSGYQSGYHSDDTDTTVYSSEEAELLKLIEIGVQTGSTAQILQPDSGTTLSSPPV

Compound	IC50 [1, 7]	IC50 [2, 8]	IC50 ([3]; protocol of Example D-2 (other compounds))	IC50 ([1]; protocol of Example B-2)	IC50 ([2]; protocol of Example C-2)	IC50 ([3]; protocol of Example D-2)	IC50 [4]	IC50 [5]	IC50 [6]
CC(C)n1cc(C(=O)Nc2ccc(Oc3ccnc4cc(F)cnc34)c(F)c2)c(=O)c(-c2ccc(F)cc2)c1 [Compound 161, N-[3-Fluoro-4-[(7-fluoro-1,5-naphthyridin-4-yl)oxy]phenyl]-5-(4-fluorophenyl)-4-oxo-1-propan-2-ylpyridine-3-carboxamide]	< 100 nM	< 100 nM	< 100 nM						
COc1cc2nccc(Oc3ccc(NC(=O)c4cn(C(C)C)c(C)c(-c5ccc(F)cc5)c4=O)cc3F)c2nc1N(C)C [Compound 583, N-[4-[[6-(Dimethylamino)-7-methoxy-1,5-naphthyridin-4-yl]oxy]-3-fluorophenyl]-5-(4-fluorophenyl)-6-methyl-4-oxo-1-propan-2-ylpyridine-3-carboxamide]				> 300 nM	< 100 nM	< 100 nM			
C=C(C)c1cc2nccc(Oc3ccc(NC(=O)c4cnc(C)c(-c5ccc(F)cc5C)c4O)cc3F)c2nc1OC [Compound 449, N-[3-fluoro-4-[(6-methoxy-7-prop-1-en-2-yl-1,5-naphthyridin-4-yl)oxy]phenyl]-5-(4-fluoro-2-methylphenyl)-4-hydroxy-6-methylpyridine-3-carboxamide]				> 300 nM	< 100 nM	> 300 nM			
COc1cc2nccc(Oc3ccc(NC(=O)c4c(C)c(Br)c(C)n(-c5ccc(F)cc5)c4=O)cc3F)c2nc1OC [Compound 305, 5-Bromo-N-[4-[(6,7-dimethoxy-1,5-naphthyridin-4-yl)oxy]-3-fluorophenyl]-1-(4-fluorophenyl)-4,6-dimethyl-2-oxopyridine-3-carboxamide]	> 300 nM	< 100 nM					< 100 nM	< 100 nM	100 to 300 nM
COc1cc2nccc(Oc3ccc(NC(=O)c4c(C)c(Cl)c(C)n(-c5ccc(F)cc5)c4=O)cc3)c2nc1OC [Compound 307, 5-Chloro-N-[4-[(6,7-dimethoxy-1,5-naphthyridin-4-yl)oxy]phenyl]-1-(4-fluorophenyl)-4,6-dimethyl-2-oxopyridine-3-carboxamide]	> 300 nM	< 100 nM					< 100 nM	< 100 nM	> 300 nM
COc1ccc2nccc(Oc3ccc(NC(=O)c4cnc(C)n(-c5ccc(F)cc5)c4=O)cc3)c2n1 [Compound 385, 1-(4-fluorophenyl)-N-[4-[(6-methoxy-1,5-naphthyridin-4-yl)oxy]phenyl]-2-methyl-6-oxopyrimidine-5-carboxamide]	> 300 nM	< 100 nM					< 100 nM	< 100 nM	> 300 nM
Cc1ccn(-c2ccc(F)cc2)c(=O)c1C(=O)Nc1ccc(Oc2ccnc3cccnc23)c(F)c1 [Compound 303, N-[3-Fluoro-4-(1,5-naphthyridin-4-yloxy)phenyl]-1-(4-fluorophenyl)-4-methyl-2-oxopyridine-3-carboxamide]	> 300 nM	100 to 300 nM					< 100 nM	< 100 nM	> 300 nM
COc1cnc2c(Oc3ccc(NC(=O)c4nn(C(C)C)c(C)c(-c5ccc(F)cc5)c4=O)cc3F)ccnc2c1 [Compound 566, N-[3-Fluoro-4-[(7-methoxy-1,5-naphthyridin-4-yl)oxy]phenyl]-5-(4-fluorophenyl)-6-methyl-4-oxo-1-propan-2-ylpyridazine-3-carboxamide]				> 300 nM	< 100 nM		< 100 nM	< 100 nM	> 300 nM
O=C(Nc1ccc(Oc2ccnc3cccnc23)c(F)c1)c1cccn(-c2ccc(F)cc2)c1=O [Compound 304, N-[3-Fluoro-4-(1,5-naphthyridin-4-yloxy)phenyl]-1-(4-fluorophenyl)-2-oxopyridine-3-carboxamide]	> 300 nM	< 100 nM					< 100 nM	< 100 nM	100 to 300 nM
COc1cnc2c(Oc3ccc(NC(=O)c4nnc(C)c(-c5ccc(F)cc5)c4OC(C)C)cc3F)ccnc2c1 [Compound 567, N-[3-Fluoro-4-[(7-methoxy-1,5-naphthyridin-4-yl)oxy]phenyl]-5-(4-fluorophenyl)-6-methyl-4-propan-2-yloxypyridazine-3-carboxamide]				< 100 nM	< 100 nM		< 100 nM	< 100 nM	< 100 nM
CNC(=O)c1c(-c2ccc(F)cc2)c(=O)c(C(=O)Nc2ccc(Oc3ccnc4cc(OC)c(OC)nc34)c(F)c2)cn1C [Compound 563, 5-N-[4-[(6,7-Dimethoxy-1,5-naphthyridin-4-yl)oxy]-3-fluorophenyl]-3-(4-fluorophenyl)-2-N,1-dimethyl-4-oxopyridine-2,5-dicarboxamide]				> 300 nM	< 100 nM		< 100 nM	< 100 nM	> 300 nM

The next lines start with the values.

IC50 [1, 7]	IC50 [2, 8]	IC50 ([3]; protocol of Example D-2 (other compounds))	IC50 ([1]; protocol of Example B-2)	IC50 ([2]; protocol of Example C-2)	IC50 ([3]; protocol of Example D-2)	IC50 [4]	IC50 [5]	IC50 [6]	Compound
			100 to 300 nM	< 100 nM		< 100 nM	< 100 nM	< 100 nM	COc1cc2nccc(Oc3ccc(NC(=O)c4ccnn(-c5ccc(F)cc5C)c4=O)cc3)c2nc1OC [Compound 528, N-[4-[(6,7-dimethoxy-1,5-naphthyridin-4-yl)oxy]phenyl]-2-(4-fluoro-2-methylphenyl)-3-oxopyridazine-4-carboxamide]
			100 to 300 nM	< 100 nM		< 100 nM	< 100 nM	< 100 nM	COc1cc2nccc(Oc3ccc(NC(=O)c4ccnn(-c5ccc(F)cc5C)c4=O)cc3F)c2nc1OC [Compound 527, N-[4-[(6,7-dimethoxy-1,5-naphthyridin-4-yl)oxy]-3-fluorophenyl]-2-(4-fluoro-2-methylphenyl)-3-oxopyridazine-4-carboxamide]
			> 300 nM	100 to 300 nM		< 100 nM	< 100 nM	< 100 nM	COc1cnc2c(Oc3ccc(NC(=O)c4ccnn(-c5ccc(F)cc5C)c4=O)cc3F)ccnc2c1 [Compound 529, N-[3-fluoro-4-[(7-methoxy-1,5-naphthyridin-4-yl)oxy]phenyl]-2-(4-fluoro-2-methylphenyl)-3-oxopyridazine-4-carboxamide]
< 100 nM	< 100 nM					< 100 nM	< 100 nM	< 100 nM	CCOc1c(C)cn(-c2ccc(F)cc2)c(=O)c1C(=O)Nc1ccc(Oc2ccnc3cc(OC)c(OC)nc23)c(F)c1 [Compound 371, N-[4-[(6,7-dimethoxy-1,5-naphthyridin-4-yl)oxy]-3-fluorophenyl]-4-ethoxy-1-(4-fluorophenyl)-5-methyl-2-oxopyridine-3-carboxamide]
> 300 nM	< 100 nM					< 100 nM	< 100 nM	100 to 300 nM	COc1cc2nccc(Oc3ccc(NC(=O)c4c(C)c(C)c(C)n(-c5ccc(F)cc5)c4=O)cc3F)c2nc1OC [Compound 306, N-[4-[(6,7-Dimethoxy-1,5-naphthyridin-4-yl)oxy]-3-fluorophenyl]-1-(4-fluorophenyl)-4,5,6-trimethyl-2-oxopyridine-3-carboxamide]
